Laboratory results reported in EP4656178A1, “COSMETIC USE OF ATRACTYLODES LANCEA ROOT EXTRACT” (Provital, S.A., priority 2024, dated 2025).

Legend:
Type in all cases: cell-based
[1] = tested on: reconstructed human pigmented epidermis (RHPE); assay: Depigmentation test: melanin quantification by imaging; settings: daily application day 9 to day 17, in comparison with Control, read-out: melanin reduction
Description: The depigmenting potential of the ALRE was assessed on reconstructed human pigmented epidermis (RHPE). Said cells were specifically generated for screening depigmenting agents or skin lightening products prior to human in vivo testing, as disclosed in Hall et al., Reconstructed human pigmented skin/epidermis models achieve epidermal pigmentation through melanocore transfer, Pigment Cell Melanoma Res., 2022, 35, 425-435. On day 9, the medium was replaced with a daily renewal, incorporating test compounds: the ALRE at concentrations of 0.2, 0.1, and 0.05 mg/ml, comparing its effect with 10 µM Retinol. In this assessment, […] DMSO was used as a negative control and 250 µM Kojic acid as a positive control. Images for melanin evaluation were captured on day 17 using Leica EZ4 W stereo microscope (Leica Microsystems, Wetzlar, Germany) and quantified as follows: all imaging processing steps were performed with the imaging software Fiji/lmageJ v 1.52n (Schindelin et al., Fiji - an Open Source platform for biological image analysis, Nat. Methods, 2012, 9(7), doi:10-1038). […] Statistical differences were determined by two-way ANOVA using R version 4.3.2 (R: A Language and Environment for Statistical Computing, n.d.). […]

Human Dermal Fibroblasts = settings: 6 h, 10 µM retinol or 0.05 mg/ml ALRE
Description: To better understand the cellular pathways and processes that were modulated by the ALRE in human dermal fibroblasts, and its relevance with respect to retinol, a comprehensive and comparative assessment of gene expression by transcriptome analysis was conducted.
Three biological triplicates of Human Dermal Fibroblasts (HDF; ZenBio Inc., Research Triangle Park, NC, USA) were stimulated for 6 h with either 10 µM retinol or 0.05 mg/ml ALRE. RNA was extracted with the TRIzol® Plus RNA Purification Kit, including DNase I treatment step, according to manufacturer's instructions. RNA quality and quantity were inspected by spectrophotometric measurement using a NanoDrop™ One spectrophotometer (Thermo Fisher Scientific, Pittsburgh, PA, USA).
Messenger RNA was purified from total RNA using poly-T oligo-attached magnetic beads. After fragmentation, the first strand cDNA was synthesized using random hexamer primers, followed by the second strand cDNA synthesis using either dUTP for directional library or dTTP for non-directional library. For the non-directional library, it was ready after end repair, A-tailing, adapter ligation, size selection, amplification, and purification. For the directional library, it was ready after end repair, A-tailing, adapter ligation, size selection, USER enzyme digestion, amplification, and purification . The library was checked with Qubit and real-time PCR for quantification and bioanalyzer for size distribution detection. Quantified libraries were pooled and sequenced (Paired-end 150 bp) on Illumina platforms, according to effective library concentration and data amount.
Obtained data were studied by bioinformatic analysis as disclosed, for example, in Liao et al, featureCounts: an efficient general purpose program for assigning sequence reads to genomic features, Bioinformatics, 2014 ,30(7), 923-30, Mortazavi et al., Mapping and quantifying mammalian transcriptomes by RNA-Seq, Nature Methods, 2008, 5(7), 621-628, and Robinson et al., edgeR: a Bioconductor package for differential expression analysis of digital gene expression data, Bioinformatics, 2010, 26(1), 139-140.
Genes involved in the following categories were studied: • 2.1.- Retinoid binding, metabolizing genes and lipid transport • 2.2.- Extracellular matrix • 2.3.- Inflammatory pathway

human TRPV1 channel = biological target: T1, human TRPV1 channel (Homo sapiens, UniProt Q8NER1); assay: TRPV1 irritation test: intracellular calcium influx (Fluo4-NW) in TRPV1-overexpressing HEK cells; settings: 1-hour incubation, normalized to 1 µM capsaicin (100%) and assay buffer (0%)
T1 construct: expressed in transfected cells
Excerpt: In this TRPV1 test, compositions comprising different amounts of the A. lancea root extract (ALRE) were compared with retinol and tested on Human Embryonic Kidney (HEK) cells stably expressing this TRPV1 channel.
Cytosolic calcium influx was monitored using Fluo4-NW (Thermo Fisher Scientific) mix dye following manufacturer's instructions.
Activation of the TRPV1 receptor causes a Ca^+2 influx, and a direct relationship between fluorescence and TRPV1 receptor response can be established.
Fluorescence signal (AFU) was measured after excitation at 485 nm and emission at 520 nm using ClarioStar Plus microplate reader from BMG LABTECH.
The effect of tested compounds on intracellular Ca^+2 influx was studied 48 hours after cell seeding. The medium of TRPV1-overexpressing HEK cells was replaced by 90 µL/well of Fluo4-NW dye solution in assay buffer containing probenecid. […]
After 1 hour incubation at 37 °C, the plate was kept for 15 minutes at room temperature inside the fluorescence plate reader. After that, the program started with a stop in cycle 3 to add test compounds and capsazepine, 0.2% Triton X-100 (maximal signal control for dye loading) and assay buffer (minimal signal) and the fluorescence signal was recorded for 7 additional cycles. […] The signal was recorded until cycle 20. […]

[2] = vs non-treated human fibroblast

T1 sequence (Q8NER1 whole entry): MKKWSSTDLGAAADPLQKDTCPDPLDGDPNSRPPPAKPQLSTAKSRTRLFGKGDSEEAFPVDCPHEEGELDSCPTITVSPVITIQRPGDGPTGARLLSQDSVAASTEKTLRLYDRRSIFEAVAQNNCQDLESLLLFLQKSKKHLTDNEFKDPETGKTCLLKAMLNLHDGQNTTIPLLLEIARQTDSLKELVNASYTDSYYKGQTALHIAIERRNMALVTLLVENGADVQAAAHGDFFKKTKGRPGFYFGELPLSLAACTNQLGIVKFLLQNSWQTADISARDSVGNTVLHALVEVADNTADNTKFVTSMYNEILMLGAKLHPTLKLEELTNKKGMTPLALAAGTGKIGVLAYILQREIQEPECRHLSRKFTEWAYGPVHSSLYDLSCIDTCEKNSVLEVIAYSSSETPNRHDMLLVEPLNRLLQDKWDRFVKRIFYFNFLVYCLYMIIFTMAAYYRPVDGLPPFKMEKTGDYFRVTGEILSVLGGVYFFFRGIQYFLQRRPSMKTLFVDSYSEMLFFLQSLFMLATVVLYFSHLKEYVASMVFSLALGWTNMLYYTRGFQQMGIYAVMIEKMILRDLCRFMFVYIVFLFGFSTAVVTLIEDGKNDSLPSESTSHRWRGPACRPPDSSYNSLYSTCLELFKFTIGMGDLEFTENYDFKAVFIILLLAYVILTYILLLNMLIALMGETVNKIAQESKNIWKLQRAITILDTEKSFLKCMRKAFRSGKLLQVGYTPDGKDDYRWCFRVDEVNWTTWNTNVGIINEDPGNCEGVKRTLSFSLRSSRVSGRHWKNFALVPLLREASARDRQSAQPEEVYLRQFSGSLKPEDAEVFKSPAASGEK

SMILES | inhibition at 10 µM ([1]; 10 µM retinol) | MMP1 gene expression (Human Dermal Fibroblasts; [2]) | MMP12 gene expression (Human Dermal Fibroblasts; [2]) | TIMP1 gene expression (Human Dermal Fibroblasts; [2]) | TIMP3 gene expression (Human Dermal Fibroblasts; [2]) | gene expression associated with crucial ECM proteins (Human Dermal Fibroblasts; vs non-treated human fibroblast (100%)) | intracellular calcium increase (human TRPV1 channel; retinol 50 µM) | intracellular calcium increase (human TRPV1 channel; retinol 100 µM) | inhibition at 250 µM ([1]; 250 µM kojic acid)
CC1=C(/C=C/C(C)=C/C=C/C(C)=C/CO)C(C)(C)CCC1 [retinol] | 76% | elevation | elevation | significantly upregulated | significantly upregulated | comparable modulation of gene expression | significant rise | significant rise | –
O=c1cc(CO)occ1O [kojic acid] | – | – | – | – | – | – | – | – | 58%
